This is an account of results in paper PMC6826779, “Bis-allylic Deuterated DHA Alleviates Oxidative Stress in Retinal Epithelial Cells” (Antioxidants, 2019).

In data set [1] the target is T1, 15-sLOX (Glycine max, UniProt P08170).
T1 sequence (P08170 1-839): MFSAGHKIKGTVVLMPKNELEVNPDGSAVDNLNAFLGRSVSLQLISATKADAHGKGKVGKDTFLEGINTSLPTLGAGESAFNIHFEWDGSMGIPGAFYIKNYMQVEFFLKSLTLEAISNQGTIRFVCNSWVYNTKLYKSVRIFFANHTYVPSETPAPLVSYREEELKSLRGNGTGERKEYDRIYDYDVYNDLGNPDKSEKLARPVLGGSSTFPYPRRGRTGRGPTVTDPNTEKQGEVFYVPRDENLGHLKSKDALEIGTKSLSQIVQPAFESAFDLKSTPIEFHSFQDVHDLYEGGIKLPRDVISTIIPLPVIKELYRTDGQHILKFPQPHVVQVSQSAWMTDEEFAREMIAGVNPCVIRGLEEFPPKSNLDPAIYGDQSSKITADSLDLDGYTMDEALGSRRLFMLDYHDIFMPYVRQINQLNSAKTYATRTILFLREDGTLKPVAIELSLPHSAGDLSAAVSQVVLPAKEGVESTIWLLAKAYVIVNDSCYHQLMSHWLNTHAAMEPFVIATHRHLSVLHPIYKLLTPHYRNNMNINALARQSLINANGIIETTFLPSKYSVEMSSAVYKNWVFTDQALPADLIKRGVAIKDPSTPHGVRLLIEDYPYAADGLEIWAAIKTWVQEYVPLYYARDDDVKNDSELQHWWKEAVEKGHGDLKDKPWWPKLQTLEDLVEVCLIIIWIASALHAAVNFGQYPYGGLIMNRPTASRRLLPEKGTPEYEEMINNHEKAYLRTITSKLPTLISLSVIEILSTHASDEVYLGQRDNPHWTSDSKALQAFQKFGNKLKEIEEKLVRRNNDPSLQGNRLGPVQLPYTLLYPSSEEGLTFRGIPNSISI
Put plainly: Kinetics parameters of 15s-LOX (UV 270 nm, Michaelis-Menten). It counts as biochemical, Glycine max (soybean). The protocol:
The activity of 15-sLOX was monitored on a Beckman Coulter DU730 Life Sciences UV-visible spectrometer at a wavelength of 270 nm monitoring the conjugated triene structure in the dihydroxylation products. For the measurements a reaction mixture of DHA or deuterated DHA (0.02 mM; 0.04 mM; 0.1 mM and 0.2 mM) was prepared in 750 µL sodium borate buffer (50 mM, pH 9) by ultrasonification for 10 s. The reaction was subsequently initiated by the addition of 10 µL 15-sLOX (4 mg/mL) to make a total volume of 760 µL in a Hellma CEL2056 quartz cuvette with 1 cm path length (20 °C). The initial reaction rates (V(0)), derived from the recorded UV-absorbance using the law of Lambert-Beer (molar extinction coefficient = 40,000), were plotted against the respective DHA concentrations and fitted to Michaelis-Menten kinetics in GraphPad Prism 7.0. All V(0) values were determined in triplicate and the average of three independent experiments was plotted against the substrate concentrations to yield Michaelis-Menten kinetics.

In data set [2] the target is T1, 15-sLOX. Put plainly: LC-MS/MS of 15s-LOX oxidized samples (product profile). As to conditions: 0.1 mM substrate, 30 min reaction, room temperature. The format is biochemical, Glycine max (soybean). The protocol: In order to gain insights on the nature of the produced metabolites, LC-MS/MS analysis of the reaction products were carried out. To this end, the respective DHA variants (0.1 mM) were incubated in a 2 mL eppendorf tube with 10 µL 15-sLOX (4 mg/mL) in sodium borate buffer (50 mM, pH 9) for 30 min at room temperature and the reaction quenched by the addition of cold MeOH (760 µL). The hydroperoxides were reduced with the addition of aq. SnCl2 (50 µL, 5 mg/mL) and subsequently the mixture was centrifuged (16,100 ×g for 5 min). Water (2 mL) was added to the supernatant, followed by the dropwise addition of glacial acetic acid (40 µL). The products were purified by SPE using SepPak 200 mg C18 cartridges (3CC), according to published protocols. The methyl formate eluates were evaporated to dryness, dissolved in MeOH (0.5 mL) and stored at −80 °C until analysis. The resulting solution was diluted 1000 times with MeOH for LC-MS/MS measurements. To 120 µL water, 72 µL of MeOH, 4 µL of the diluted solution and 4 µL of an internal standard (15-HETE-d8, Leukotriene LTB4-d4 and DHA-d5) was added. The samples were loaded in a SIL-30AC autosampler and the analytes separated on a Kinetex 1.7 µm C18 100Å, 50 × 2.1 mm LC column as described. The detection of DHA metabolites was performed in selected ion monitoring mode using several traces in order to take the eventual loss of a deuterium atom into account. The following traces were used: m/z 327.2, 343.2, 359.2 and 375.2 for DHA and its metabolites, m/z 327.2, 328.2, 329.2, 344.2, 345.2, 360.2, 361.2, 376.2, 377.2 for D2-DHA, m/z 331.2, 345.3, 346.2, 361.2, 362.3, 363.2, 377.2, 378.2 and 379.2 for D4-DHA and m/z 337.2, 352.2, 353.2, 367.2, 368.2, 369.2, 383.2, 384.2 and 385.2 for D10-DHA. Tandem mass spectra were recorded as product ion scans. Quantification of the metabolites was done by calculating the area ratio between the analyte and the internal standard (DHA-d5 for non-hydroxylated, 15-HETE-d8 for mono-hydroxylated and LTB4-d4 for di-hydroxylated derivatives) using Multiquant version 3.0.2.

In data set [3] the test system is ARPE-19 cells. Description: cells. The format is cell-based. As to conditions: ARPE-19, H2O2 treatment 600 µM in 1% FBSM. The protocol: ARPE-19 cells were obtained from ATCC, and maintained in Dulbecco’s Modified Eagle’s Medium (DMEM)/Ham F12 (GIBCO) containing 10% (v/v) fetal bovine serum (FBS) and 1% (v/v) penicillin/streptomycin under a humidified (95%)/CO2 (5%) atmosphere at 37 °C. For splitting and experiments, cells were dissociated with 0.25% trypsin-EDTA, re-suspended in the culture medium and then plated at 1–3 × 10^5 cells/mL. Cells were cultured and used up to a maximum of 10 passages.
(§1) Cell viability was determined by the MTT colorimetric assay. Cells were incubated for 2 h with MTT reagent (0.5 mg/mL). The absorbance at 570 nm and 655 nm of individual wells was measured using a microplate reader (BioRad 550). The percentage of viable cells was calculated as [(OD570 sample – OD655 sample)/(OD570 control – OD655 control)] × 100%.
ARPE-19 cells were plated into 96-well plates (3 × 10^4 cells/well) and cultured for 24 h to reach confluence before DHA treatment. The cells were treated in medium with 1% FBS (1% FBSM), or with H2O2 prepared in medium with FBS (1%, v/v) to a final concentration of 600 μM. Cells were then treated with DHA, D2-DHA and D4-DHA, at different concentrations (0–80 μm) for 24 h. Control cells were incubated with DMSO (0.2%). After 4 h, cell viability was determined in triplicate using the MTT colorimetric assay. Results were expressed in percentage of viable cells normalized with control conditions in the absence of PUFA and H2O2 stress.
Sigmoidal doses-responses linked to the toxicity were obtained using GraphPad prism software, allowing to calculate IC50 values described as the concentration leading to 50% of cell viability.

The test system of data set [4] is ARPE-19 cells. Put plainly: Protection of lipophenols against all-trans-retinal (MTT cell viability). The format is cell-based. As to conditions: ARPE-19, pretreatment 80 µM 1 h, trans-retinal 25 µM 4 h, MTT after 20 h. As for the experimental part: as §1
ARPE-19 cells were plated into 96-well plates (3 × 10^4 cells/well) and cultured for 24 h to reach confluence before lipophenol treatment. Cells were treated with serum free medium containing lipophenols at different concentrations (0–80 μM) for 1 h. Then all-trans-retinal was added to a final concentration of 25 μM for 4 h (in DMF), before rinsing with medium. Cell viability was determined 16–20 h later, in triplicate samples, using the MTT colorimetric assay. Control cells were incubated with DMSO (0.2%) and DMF (0.14%). The data are expressed as the percentage of untreated cells (CTL, without all-trans-retinal).

The subject of data set [5] is ARPE-19 cells. Put plainly: Lipid peroxidation status with C11-Bodipy581/591 probe (FACS) under oxidative conditions. The format is cell-based. As to conditions: ARPE-19, 50 µM for 24 h. The protocol:
ARPE-19 cells were plated into 2 cm^2 wells (2 × 10^5 cells/well) and cultured for 24 h to reach confluence before PUFA or lipophenol treatment. The cell cultures were treated with 1% FBSM containing tested compounds (deuterated DHAs or deuterated lipophenols) at 50 μM for 24 h and then rinsed with media before the incubation of 5 µM C11-Bodipy^581/591 for 30 min. Then, the cells were rinsed and treated with the different stressors, corresponding to different protocols. For chemical stress the cells were incubated with 400 µM of H2O2 during 24 h followed by FACS analysis. For photobleaching stress, the cells were exposed to a white LED lamp with an intensity of 5000 lux at room temperature during 1 h followed by the FACS analysis.
FACS was performed with the BD Accuri C6 Flow Cytometer and BD Accuri C6 Software for data acquisition (BD Biosciences). This flow cytometer is equipped with an excitation laser at 488 nm, and a fluorescence detector FL1 533/30 nm. Data were collected to 10,000 events for each sample using a flow rate of 35 µL/min. Parameters obtained for data analysis included: cell size from the forward scatter (FSC), granularity from the side scatter (SSC) and the green fluorescence of the stained cells with C11-Bodipy^581/591.
First the SSC-A versus FSC-A dot-plot was used to gate the cellular population and remove the cellular debris. Then the SSC-A versus SSC-H dot-plot was used to remove cell doublets in the previous gate to give a final gate. The cellular population in the last gate designed was plotted on count versus log green fluorescence to give the fluorescence mean intensity of FL1. The mean FL1 values were normalized to the cells only stained with C11-Bodipy^581/591.

Where [6] appears, read: serum starvation (1% FBSM) 48 h.

Regarding `CC/C=C\C/C=C\C/C=C\C/C=C\C/C=C\C/C=C\CCC(=O)O` [D10-DHA], the Km – broadly, the substrate concentration at which the rate is half of its maximum – on 15-sLOX [1] (15s-LOX, substrate 0.02-0.2 mM, borate buffer pH 9, 20 °C, 270 nm) is 3.27 µM.

On to `[2H]C([2H])(/C=C\CC)/C=C\C([2H])([2H])/C=C\C([2H])([2H])/C=C\C([2H])([2H])/C=C\C([2H])([2H])/C=C\CCC(=O)O` [D10-DHA], for which the “pre-dominant product of 15-sLOX oxidation (LC-MS)” value at 15-sLOX [2] is recorded as “vast excess obtained for 17S-HDHA”. The “fold decrease in the Vmax value” on 15-sLOX [1] (15s-LOX, compared with the other DHAs) was “more than 10 fold”. Moreover, the “15s-LOX activity for the double hydroxylation product” value on 15-sLOX [1] (monitored at 270 nm) is “significantly reduced activity”.

Turning to `OO` [H2O2, Hydrogen peroxide, reference compound], the cell mortality in the data set on ARPE-19 cells [3] is 60–70%.

Take `[2H]C([2H])(/C=C\C/C=C\C/C=C\C/C=C\C/C=C\CC)/C=C\CCC(=O)Oc1cc(O)cc(OC(C)C)c1` [IP-D2-DHA, phloroglucinol-OiPr-O-(6,6-D2)-DHA]: the “increase in cell viability against all-trans-retinal” value (“increase in cell viability” below) in the data set with ARPE-19 cells [4] is on record as 52%. The “lipid peroxidation status (C11-BODIPY fluorescence)” value with ARPE-19 cells [5] (setting [6]) is “slight but significant decrease in lipid peroxidation”.

As to `[2H]C([2H])(C=CCC=CCC=CCC=CCC)C=CC([2H])([2H])C=CCCC(=O)Oc1cc(O)cc(OC(C)C)c1` [IP-D4-DHA, phloroglucinol-OiPr-O-(6,6,9,9-D4)-DHA], the “increase in cell viability” value in the data set on ARPE-19 cells [4] came out at 47%. For the same compound, the “lipid peroxidation status (C11-BODIPY fluorescence)” value in the data set on ARPE-19 cells [5] (serum starvation (1% FBSM) 24 h) is “decreased lipid peroxidation compared to IP-DHA and IP-D2-DHA”; with ARPE-19 cells [5] (setting [6]), “slight but significant decrease in lipid peroxidation”; in the data set on ARPE-19 cells [5] (then H2O2 400 µM 24 h), “decreased the lipid peroxidation status relative to IP-DHA and IP-D2-DHA”; in the data set with ARPE-19 cells [5] (then photobleaching (white light, 5000 lux, 1 h)), “reduction of lipid oxidation”.

Take `CC/C=C\C/C=C\C/C=C\C/C=C\C/C=C\C/C=C\CCC(=O)Oc1cc(O)cc(OC(C)C)c1` [IP-DHA]: the “increase in cell viability” value in the data set with ARPE-19 cells [4] is on record as 42%.
